# Experimental data as given in ChEMBL document CHEMBL1201862, “PubChem BioAssay data set” (2004).
#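 In this assay, cells in 96-well plates receive the compound at five concentrations for 48 hours. Endpoints are linearly interpolated between the surrounding concentrations. The concentration for 50% growth inhibition is given as GI50.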 Calls of active or inactive are those of the source. No stated cut-off is given here; in the data, active = GI50 up to about 1.1 µM and inactive = higher.
# Tests used:
# Assay in all cases: DTP human tumour cell line panel, 48 h
# A549 = tested on: A549
# CCRF-CEM = tested on: CCRF-CEM
# DU-145 = tested on: DU-145
# HCC 2998 = tested on: HCC 2998
# HOP-92 = tested on: HOP-92
# HT-29 = tested on: HT-29
# IGROV-1 = tested on: IGROV-1
# NCI-H23 = tested on: NCI-H23
# NCI-H460 = tested on: NCI-H460
# NCI-H522 = tested on: NCI-H522
# NCI/ADR-RES = tested on: NCI/ADR-RES
# OVCAR-3 = tested on: OVCAR-3
# PC-3 = tested on: PC-3
# SK-MEL-28 = tested on: SK-MEL-28
# SK-OV-3 = tested on: SK-OV-3
# SN12C = tested on: SN12C
# SNB-19 = tested on: SNB-19
# SNB-75 = tested on: SNB-75
# SW-620 = tested on: SW-620
# UACC-257 = tested on: UACC-257
SMILES,GI50 (A549),GI50 (CCRF-CEM),GI50 (DU-145),GI50 (HCC 2998),GI50 (HOP-92),GI50 (HT-29),GI50 (IGROV-1),GI50 (NCI-H23),GI50 (NCI-H460),GI50 (NCI-H522),GI50 (NCI/ADR-RES),GI50 (OVCAR-3),GI50 (PC-3),GI50 (SK-MEL-28),GI50 (SK-OV-3),GI50 (SN12C),GI50 (SNB-19),GI50 (SNB-75),GI50 (SW-620),GI50 (UACC-257)
O=C1C(CN2CCOCC2)CCCC1CN1CCOCC1 (stereo not given),24.1 µM (inactive),0.76 µM (active),17.3 µM (inactive),5.27 µM (inactive),0.92 µM (active),1.76 µM (inactive),8.79 µM (inactive),6 µM (inactive),24.6 µM (inactive),0.0597 µM (active),2.18 µM (inactive),3.1 µM (inactive),15.6 µM (inactive),1.95 µM (inactive),32.1 µM (inactive),4.01 µM (inactive),30.8 µM (inactive),14 µM (inactive),0.436 µM (active),2.09 µM (inactive)
CCOC(=O)C(C)c1nc2cc(N3CCOCC3)c(F)cc2[nH]c1=O (stereo not given),> 100 µM (inactive),> 100 µM (inactive),> 100 µM (inactive),> 100 µM (inactive),> 100 µM (inactive),> 100 µM (inactive),> 100 µM (inactive),> 100 µM (inactive),> 100 µM (inactive),53.1 µM (inactive),> 100 µM (inactive),> 100 µM (inactive),> 100 µM (inactive),> 100 µM (inactive),> 100 µM (inactive),> 100 µM (inactive),> 100 µM (inactive),> 100 µM (inactive),> 100 µM (inactive),> 100 µM (inactive)
O=S(=O)(/C=C/C=C/[S+]([O-])c1ccccc1)c1ccccc1 (stereo not given),> 10 µM (inactive),0.333 µM (active),> 4.42 µM (inactive),> 10 µM (inactive),1.96 µM (inactive),2.21 µM (inactive),> 5.41 µM (inactive),1.96 µM (inactive),> 10 µM (inactive),1.59 µM (inactive),2.12 µM (inactive),1.53 µM (inactive),> 6.92 µM (inactive),1.98 µM (inactive),> 10 µM (inactive),2 µM (inactive),> 10 µM (inactive),4.66 µM (inactive),1.3 µM (inactive),1.67 µM (inactive)
COc1cc2oc(-c3ccc4c(c3)OCO4)c(OC)c(=O)c2c(OC)c1O,48.1 µM (inactive),34.7 µM (inactive),> 100 µM (inactive),70.5 µM (inactive),13.6 µM (inactive),> 100 µM (inactive),37.5 µM (inactive),> 100 µM (inactive),64.6 µM (inactive),21.9 µM (inactive),66.8 µM (inactive),44.2 µM (inactive),68.5 µM (inactive),> 100 µM (inactive),39.4 µM (inactive),71.8 µM (inactive),> 100 µM (inactive),33.2 µM (inactive),> 100 µM (inactive),> 100 µM (inactive)
Clc1ccc(C2ON=C(c3ccccc3)N2C23CC4CC(CC(C4)C2)C3)cc1Cl (stereo not given),> 10 µM (inactive),> 10 µM (inactive),> 10 µM (inactive),> 10 µM (inactive),7.13 µM (inactive),> 10 µM (inactive),> 10 µM (inactive),> 10 µM (inactive),> 10 µM (inactive),> 10 µM (inactive),> 10 µM (inactive),> 10 µM (inactive),> 10 µM (inactive),7.93 µM (inactive),> 10 µM (inactive),> 10 µM (inactive),> 10 µM (inactive),> 10 µM (inactive),> 10 µM (inactive),> 10 µM (inactive)
Clc1nc(Cl)nc(NC23CC4CC(CC(C4)C2)C3)n1,20 µM (inactive),7.55 µM (inactive),16.7 µM (inactive),20.3 µM (inactive),17.2 µM (inactive),17.9 µM (inactive),13.7 µM (inactive),18.5 µM (inactive),26.3 µM (inactive),16.7 µM (inactive),21 µM (inactive),18.8 µM (inactive),> 34.8 µM (inactive),19.6 µM (inactive),32.3 µM (inactive),18.1 µM (inactive),21.4 µM (inactive),17.5 µM (inactive),16.7 µM (inactive),17.3 µM (inactive)
CC(=O)OC1CC[C@@]2(C)C(CC[C@]3(C)C2CC=C2[C@@H]4C(C)[C@H](C)CCC4(C)CCC23C)[C@@]1(C)C(=O)O (stereo not given in full),17.5 µM (inactive),24.9 µM (inactive),17.9 µM (inactive),19.1 µM (inactive),21.2 µM (inactive),21.2 µM (inactive),20.6 µM (inactive),22.5 µM (inactive),23.5 µM (inactive),19.2 µM (inactive),17 µM (inactive),18.9 µM (inactive),15.4 µM (inactive),23.7 µM (inactive),18.4 µM (inactive),21.5 µM (inactive),22.9 µM (inactive),19.2 µM (inactive),21.9 µM (inactive),21 µM (inactive)
COc1ccc(/C=C(/c2ccccc2)c2c(C)cc(C)c(/C(=C\c3ccc(OC)cc3)c3ccccc3)c2/N=N/c2cc(C)cc(C)c2)cc1,14.6 µM (inactive),8.49 µM (inactive),25.6 µM (inactive),8.34 µM (inactive),33.6 µM (inactive),9.71 µM (inactive),14.4 µM (inactive),14.4 µM (inactive),15.5 µM (inactive),15 µM (inactive),> 100 µM (inactive),4.1 µM (inactive),9.89 µM (inactive),> 100 µM (inactive),41 µM (inactive),8.47 µM (inactive),15.5 µM (inactive),6.92 µM (inactive),13.5 µM (inactive),7.69 µM (inactive)
Cn1c2ccccc2c2c(=S)c3ccccc3ccc21,71.4 µM (inactive),19 µM (inactive),88.9 µM (inactive),> 100 µM (inactive),> 100 µM (inactive),63.4 µM (inactive),81.8 µM (inactive),> 100 µM (inactive),> 100 µM (inactive),36.8 µM (inactive),> 100 µM (inactive),17.8 µM (inactive),59.4 µM (inactive),> 100 µM (inactive),> 100 µM (inactive),> 100 µM (inactive),> 100 µM (inactive),24.6 µM (inactive),> 100 µM (inactive),> 100 µM (inactive)
NC(=O)c1cc2ccccc2o/c1=N/O,78.5 µM (inactive),> 100 µM (inactive),> 100 µM (inactive),> 100 µM (inactive),> 100 µM (inactive),> 100 µM (inactive),66.1 µM (inactive),> 100 µM (inactive),> 100 µM (inactive),61.4 µM (inactive),> 100 µM (inactive),> 100 µM (inactive),> 100 µM (inactive),> 100 µM (inactive),> 100 µM (inactive),> 100 µM (inactive),> 100 µM (inactive),> 100 µM (inactive),> 100 µM (inactive),> 100 µM (inactive)
CC(=O)c1c2c(cc3c1CC1(C3)Cc3cc4c(c(C(=O)O)c3C1)CCCC4)CCCC2.CC(N)c1ccccc1 (stereo not given),30.2 µM (inactive),31.7 µM (inactive),49 µM (inactive),34.5 µM (inactive),15.4 µM (inactive),34.1 µM (inactive),34.8 µM (inactive),42 µM (inactive),20.2 µM (inactive),46.1 µM (inactive),40.1 µM (inactive),23.6 µM (inactive),39.7 µM (inactive),33.4 µM (inactive),39.5 µM (inactive),30.7 µM (inactive),46.5 µM (inactive),39.7 µM (inactive),45.4 µM (inactive),30.9 µM (inactive)
O=C(C=P(c1ccccc1)(c1ccccc1)c1ccccc1)c1ccccc1-c1ccccc1C(=O)C=P(c1ccccc1)(c1ccccc1)c1ccccc1,0.0128 µM (active),< 0.0128 µM (active),0.0184 µM (active),0.0319 µM (active),0.0127 µM (active),0.0236 µM (active),< 0.015 µM (active),0.018 µM (active),0.0248 µM (active),0.014 µM (active),0.373 µM (active),< 0.01 µM (active),< 0.01 µM (active),0.178 µM (active),0.0216 µM (active),0.0193 µM (active),0.0288 µM (active),0.0206 µM (active),0.027 µM (active),< 0.01 µM (active)
CC(=O)C(C(=O)c1ccc(C)cc1)[C@@H]1OC(C)(C)O[C@@H]1[C@H]1COC(C)(C)O1 (stereo not given in full),19.6 µM (inactive),1.27 µM (inactive),7.74 µM (inactive),25.1 µM (inactive),35.2 µM (inactive),5.21 µM (inactive),12.7 µM (inactive),9.53 µM (inactive),25.1 µM (inactive),4.89 µM (inactive),9.93 µM (inactive),7.66 µM (inactive),8.57 µM (inactive),20.8 µM (inactive),51.2 µM (inactive),3.97 µM (inactive),15.7 µM (inactive),13.4 µM (inactive),3.55 µM (inactive),12.4 µM (inactive)
COc1cc(OC)c(/C=N\Nc2nc3ccccc3c(=O)n2-c2ccccc2)c(OC)c1,31.4 µM (inactive),14.2 µM (inactive),31.3 µM (inactive),39.6 µM (inactive),24.8 µM (inactive),24.5 µM (inactive),40.6 µM (inactive),58.5 µM (inactive),21.7 µM (inactive),26.6 µM (inactive),19.9 µM (inactive),23.6 µM (inactive),26.3 µM (inactive),27.4 µM (inactive),24.9 µM (inactive),30.7 µM (inactive),24 µM (inactive),24.9 µM (inactive),31 µM (inactive),27.5 µM (inactive)
